The values below come from patent US12071411B2, “Inhibitors of HIF-2α and methods of use thereof” (ARCUS BIOSCIENCES, INC., priority 2021, dated 2024).

Where only a bound is given, the exact number is not on record here.

Assay [1] concerns the target T1, HIF-2α (Homo sapiens, UniProt Q99814). The assay can be described thus: HIF-2α Luciferase Reporter Assay (serum free) in HIF-Luc-786-0 cells. In kind it is cell-based. The following applies: Opti-MEM, 786-0 reporter cells, 20 hours incubation. Put shortly:
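786-0 cells stably transduced with HIF luciferase reporter, 20,000 cells/well in serum-free Opti-MEM, compounds (50 uM downward, 1% DMSO) 20 h at 37 °C. ONE-Glo luminescence normalized to DMSO and no-cell controls; IC50 from four-parameter fit.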

Assay [2] deals with T1, HIF-2α. The assay can be described thus: HIF-2α Luciferase Reporter Assay (serum), HRE-luciferase 786-0 cells in 100% human serum. In kind it is cell-based. The following applies: for IC50: 100% human serum, 786-0 reporter cells, overnight incubation, read-out: Serum Potency; for Serum Shift (approximate): ratio of IC50 in 100% serum to IC50 in serum free conditions. Put shortly:
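786-0 cells stably expressing an HRE-luciferase reporter were plated and rested 3 h. They were then treated overnight at 37 °C with compound diluted in 100% human serum. Serum was replaced with Opti-MEM, ONE-Glo luminescence was read, and IC50 came from a 4-parameter logistic fit.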
(In general: Reporter assays use an easily measured gene product as a stand-in for the process of interest.)

T1 sequence (Q99814 whole entry): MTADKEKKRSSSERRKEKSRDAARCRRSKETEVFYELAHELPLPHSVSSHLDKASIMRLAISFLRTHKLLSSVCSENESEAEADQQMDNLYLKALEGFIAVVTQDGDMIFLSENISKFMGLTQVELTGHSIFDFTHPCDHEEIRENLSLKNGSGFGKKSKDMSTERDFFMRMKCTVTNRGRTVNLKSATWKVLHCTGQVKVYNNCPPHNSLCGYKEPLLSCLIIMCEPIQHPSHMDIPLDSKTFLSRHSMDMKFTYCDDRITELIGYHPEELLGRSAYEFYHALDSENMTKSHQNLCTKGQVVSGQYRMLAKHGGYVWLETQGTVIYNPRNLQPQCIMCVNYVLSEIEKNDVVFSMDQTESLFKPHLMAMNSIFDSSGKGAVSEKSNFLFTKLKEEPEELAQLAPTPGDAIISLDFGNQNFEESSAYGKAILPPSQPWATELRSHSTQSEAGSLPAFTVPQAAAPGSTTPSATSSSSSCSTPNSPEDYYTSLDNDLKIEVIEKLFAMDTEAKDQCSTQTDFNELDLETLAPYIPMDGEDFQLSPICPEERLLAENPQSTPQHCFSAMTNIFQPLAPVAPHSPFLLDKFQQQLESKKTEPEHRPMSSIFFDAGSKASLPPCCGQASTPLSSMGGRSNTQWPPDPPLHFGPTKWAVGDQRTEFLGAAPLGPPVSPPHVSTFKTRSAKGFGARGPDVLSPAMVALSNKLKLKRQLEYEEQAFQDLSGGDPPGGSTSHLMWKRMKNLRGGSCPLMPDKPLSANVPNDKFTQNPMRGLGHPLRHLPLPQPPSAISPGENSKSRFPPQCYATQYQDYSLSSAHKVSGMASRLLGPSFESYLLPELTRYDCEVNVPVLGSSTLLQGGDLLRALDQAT

Turning to `O[C@H]1c2c(C(F)(F)F)nn([C@H]3C[C@@H](F)[C@@H](F)[C@@H](F)C3)c2CC1(F)F` (mixture of isomers) [Example 88, (4S)-5,5-difluoro-1-[(3R,5S)-3,4,5-trifluorocyclohexyl]-3-(trifluoromethyl)-4,6-dihydrocyclopenta[c]pyrazol-4-ol], the IC50 in assay [1] is < 100 nM; in assay [2] it was 100 to 1000 nM. In addition, the “Serum Shift (approximate)” value in assay [2] is given as 6.

Molecule `O[C@H]1c2c(C(F)(F)F)nn([C@H]3C[C@@H]4[C@H](C3)C4(F)F)c2CC1(F)F` (single isomer, unassigned) [125/126 DIAST-1] showed an IC50 in assay [1] of 100 to 1000 nM. In assay [2], the IC50 was > 1000 nM and the “Serum Shift (approximate)” value was found to be 9.

The molecule `O[C@H]1c2c(C(F)(F)F)nn([C@@H]3CC[C@@H](F)[C@@H](F)C3)c2[C@H](F)C1(F)F` [Example 153, (4S,6S)-1-[(1R,3S,4R)-3,4-difluorocyclohexyl]-5,5,6-trifluoro-3-(trifluoromethyl)-4,6-dihydrocyclopenta[c]pyrazol-4-ol] showed an IC50 in assay [1] of 100 to 1000 nM. Moreover, in assay [2], the IC50 is > 1000 nM and the “Serum Shift (approximate)” value worked out at 18.

In the case of `C[C@H](OC(F)F)[C@H]1C[C@H](n2nc(C(F)(F)F)c3c2CC(F)(F)[C@H]3O)C1` [Example 106, (4S)-1-[3-[(1S)-1-(difluoromethoxy)ethyl]cyclobutyl]-5,5-difluoro-3-(trifluoromethyl)-4,6-dihydrocyclopenta[c]pyrazol-4-ol], the IC50 in assay [1] and in assay [2] was 100 to 1000 nM throughout. Besides, in assay [2], the “Serum Shift (approximate)” value is 1.

For `CC(CCn1nc(C(F)(F)F)c2c1CCC(F)(F)[C@H]2O)OC(F)F` (stereo partly drawn) [Example 15, (4S)-1-[3-(difluoromethoxy)butyl]-5,5-difluoro-3-(trifluoromethyl)-6,7-dihydro-4H-indazol-4-ol], the IC50 in assay [1] and in assay [2] was < 100 nM in each case. In addition, in assay [2], the “Serum Shift (approximate)” value is on record as 6.

On to `O[C@H]1c2c(C(F)(F)F)nn(C3CCC(F)(F)CC3)c2CC1(F)F` [Example 53, (4S)-1-(4,4-difluorocyclohexyl)-5,5-difluoro-3-(trifluoromethyl)-4,6-dihydrocyclopenta[c]pyrazol-4-ol], for which, in assay [1], the IC50 is < 100 nM. For the same molecule, in assay [2], the IC50 was in the range of 100 to 1000 nM and the “Serum Shift (approximate)” value was determined as 7.

For the molecule `O[C@H]1c2c(C(F)(F)F)nn(C3CC4(C3)CC(F)(F)C4)c2[C@H](F)[C@H]1F` (single isomer, unassigned) [Example 135], the IC50 in assay [1] was < 100 nM; in assay [2] it was > 1000 nM. In addition, in assay [2], the “Serum Shift (approximate)” value is on record as 12.

Consider `CO[C@H](CCn1nc(C(F)(F)F)c2c1[C@@H](F)C(F)(F)[C@H]2O)C(F)(F)F` (single isomer, unassigned) [148/149 DIAST-2], for which the IC50 in assay [1] is < 100 nM. Besides, in assay [2], the IC50 lay within 100 to 1000 nM and the “Serum Shift (approximate)” value stood at 12.

In turn, `O[C@H]1c2c(C(F)(F)F)nn([C@H]3C[C@]4(CC4(F)F)C3)c2CC1(F)F` [Example 65, (4S)-5,5-difluoro-1-[(3s,5s)-1,1-difluorospiro[2.3]hexan-5-yl]-3-(trifluoromethyl)-4,6-dihydrocyclopenta[c]pyrazol-4-ol] had an IC50 in assay [1] of 100 to 1000 nM. In addition, in assay [2], the IC50 was > 1000 nM and the “Serum Shift (approximate)” value is listed as 11.

`O=S1(=O)CC2(CC(n3nc(C(F)(F)F)c4c3CC(F)(F)[C@H]4O)C2)C1` [Example 127, (4S)-1-(2,2-dioxo-2λ^6-thiaspiro[3.3]heptan-6-yl)-5,5-difluoro-3-(trifluoromethyl)-4,6-dihydrocyclopenta[c]pyrazol-4-ol]: the IC50 in assay [1] is > 1000 nM. Further, in assay [2], the IC50 is > 1000 nM and the “Serum Shift (approximate)” value is on record as 3.

Molecule `O=S1(=O)CC(Cn2nc(C(F)(F)F)c3c2[C@@H](F)C(F)(F)[C@H]3O)C1` (single isomer, unassigned) [144/145 DIAST-2] registered an IC50 in assay [1] of 100 to 1000 nM. In addition, in assay [2], the IC50 was in the range of 100 to 1000 nM and the “Serum Shift (approximate)” value was 3.

With `CO[C@H](CCn1nc(C(F)(F)F)c2c1[C@H](F)C(F)(F)[C@H]2O)C(F)(F)F` (single isomer, unassigned) [148/149 DIAST-1], the IC50 in assay [1] was < 100 nM. Further, in assay [2], the IC50 is < 100 nM and the “Serum Shift (approximate)” value was determined as 9.

For the molecule `O[C@H]1c2c(C(F)(F)F)nn([C@H]3C[C@@H](F)[C@@H](F)[C@@H](F)C3)c2[C@@H](F)[C@H]1F` [Example 143, (4S,5S,6R)-5,6-difluoro-1-[(3R,5S)-3,4,5-trifluorocyclohexyl]-3-(trifluoromethyl)-5,6-dihydro-4H-cyclopenta[c]pyrazol-4-ol], the IC50 was 100 to 1000 nM in assay [1] and > 1000 nM in assay [2]. Also, the “Serum Shift (approximate)” value in assay [2] is given as 9.

On to `O[C@H]1c2c(C(F)(F)F)nn(-c3ccc(Cl)c(Cl)c3)c2CC1(F)F` [Example 118, (4S)-1-(3,4-dichlorophenyl)-5,5-difluoro-3-(trifluoromethyl)-4,6-dihydrocyclopenta[c]pyrazol-4-ol], for which, in assay [1], the IC50 was < 100 nM. In addition, in assay [2], the IC50 was > 1000 nM and the “Serum Shift (approximate)” value was determined as 119.

For `CC(CCn1nc(C(F)(F)F)c2c1CCC(F)(F)[C@H]2O)OC(F)(F)F` (stereo partly drawn) [Example 14, (4S)-5,5-difluoro-1-[3-(trifluoromethoxy)butyl]-3-(trifluoromethyl)-6,7-dihydro-4H-indazol-4-ol], the IC50 in assay [1] is < 100 nM. In addition, in assay [2], the IC50 was < 100 nM and the “Serum Shift (approximate)” value was 6.

As to `C[C@@H](C#N)CCn1nc(C(F)(F)F)c2c1CCC(F)(F)[C@H]2O` [Example 99, (2R)-4-[(4S)-5,5-difluoro-4-hydroxy-3-(trifluoromethyl)-6,7-dihydro-4H-indazol-1-yl]-2-methylbutanenitrile], the IC50 in assay [1] was < 100 nM; in assay [2] it was 100 to 1000 nM. For the same molecule, the “Serum Shift (approximate)” value in assay [2] came to 3.

On to `O[C@H]1c2c(C(F)(F)F)nn([C@H]3CCCC(F)(F)C3)c2[C@@H](F)[C@H]1F` (single isomer, unassigned) [136/137 DIAST-1], for which the IC50 in assay [1] is < 100 nM. Further, in assay [2], the IC50 was > 1000 nM and the “Serum Shift (approximate)” value was 4.

For `O[C@H]1c2c(C(F)(F)F)nn([C@@H]3C[C@H](F)C[C@H](F)C3)c2CC1(F)F` [Example 89, (4S)-1-[(3R,5S)-3,5-difluorocyclohexyl]-5,5-difluoro-3-(trifluoromethyl)-4,6-dihydrocyclopenta[c]pyrazol-4-ol], the IC50 is < 100 nM in assay [1] and 100 to 1000 nM in assay [2]. Moreover, in assay [2], the “Serum Shift (approximate)” value came out at 7.

As to `O[C@H]1c2c(C(F)(F)F)nn([C@@H]3CCC[C@@H](C(F)(F)F)C3)c2CC1(F)F` [Example 80, (4S)-5,5-difluoro-3-(trifluoromethyl)-1-[(1R)-3-(trifluoromethyl)cyclohexyl]-1H,4H,5H,6H-cyclopenta[c]pyrazol-4-ol], the IC50 in assay [1] was 100 to 1000 nM; in assay [2] it was > 1000 nM. Also, the “Serum Shift (approximate)” value in assay [2] is listed as >41.

`O[C@H]1c2c(C(F)(F)F)nn([C@H]3C[C@H](COC(F)F)C3)c2CC1(F)F` [Example 102, (4S)-1-[3-(difluoromethoxymethyl)cyclobutyl]-5,5-difluoro-3-(trifluoromethyl)-4,6-dihydrocyclopenta[c]pyrazol-4-ol] displayed an IC50 in assay [1] of 100 to 1000 nM. Moreover, in assay [2], the IC50 was > 1000 nM and the “Serum Shift (approximate)” value is reported as 17.

For the molecule `O[C@H]1c2c(C(F)(F)F)nn(C3CC4(C3)CC(F)(F)C4)c2C[C@H]1F` [Example 67, (4S,5R)-1-{6,6-difluorospiro[3.3]heptan-2-yl}-5-fluoro-3-(trifluoromethyl)-4,6-dihydrocyclopenta[c]pyrazol-4-ol], the IC50 in assay [1] and in assay [2] was 100 to 1000 nM throughout. Also, the “Serum Shift (approximate)” value in assay [2] came out at 7.

In the case of `O[C@H]1c2c(C(F)(F)F)nn([C@H]3CCC(F)(F)[C@H](F)C3)c2CC1(F)F` [Example 122, (4S)-5,5-difluoro-1-[(1S,3R)-3,4,4-trifluorocyclohexyl]-3-(trifluoromethyl)-4,6-dihydrocyclopenta[c]pyrazol-4-ol], the IC50 in assay [1] is < 100 nM. For the same molecule, in assay [2], the IC50 was > 1000 nM and the “Serum Shift (approximate)” value is 6.

On to `O[C@H]1c2c(C(F)(F)F)nn(CCCOC(F)(F)F)c2C[C@@H]1F` [Example 63, (4S,5S)-5-fluoro-1-[3-(trifluoromethoxy)propyl]-3-(trifluoromethyl)-5,6-dihydro-4H-cyclopenta[c]pyrazol-4-ol], for which the IC50 in assay [1] was 100 to 1000 nM. Also, in assay [2], the IC50 is > 1000 nM and the “Serum Shift (approximate)” value was found to be 4.

Consider `O=S1(=O)CCCC(n2nc(C(F)(F)F)c3c2CC(F)(F)[C@H]3O)C1` (stereo partly drawn) [Example 86, 3-[(4S)-5,5-difluoro-4-hydroxy-3-(trifluoromethyl)-1H,4H,5H,6H-cyclopenta[c]pyrazol-1-yl]-1λ^6-thiane-1,1-dione], for which the IC50 in assay [1] and in assay [2] was 100 to 1000 nM each time. The “Serum Shift (approximate)” value in assay [2] was 3.

`O[C@H]1c2c(C(F)(F)F)nn([C@@H]3C[C@@H](F)[C@@H](F)[C@@H](F)C3)c2[C@@H](F)C1(F)F` (single isomer, unassigned) [146/147 DIAST-2]: the IC50 was < 100 nM in assay [1] and 100 to 1000 nM in assay [2]. Besides, the “Serum Shift (approximate)” value in assay [2] is listed as 8.

With `O[C@H]1c2c(C(F)(F)F)nn([C@H]3CCC[C@H](C(F)(F)F)C3)c2CC1(F)F` [Example 81, (4S)-5,5-difluoro-3-(trifluoromethyl)-1-[(1S,3S)-3-(trifluoromethyl)cyclohexyl]-1H,4H,5H,6H-cyclopenta[c]pyrazol-4-ol], the IC50 was 100 to 1000 nM in assay [1] and > 1000 nM in assay [2]. For the same molecule, the “Serum Shift (approximate)” value in assay [2] was 49.
